The record followed here is patent US10722514B2 (FLX Bio, Inc., priority 2017, dated 2020).

The term IC50 denotes the concentration at which inhibition is half-maximal.

Where a name gives a salt, the structure may show the parent alone. Some results are limits rather than exact numbers.

The target of one assay is T1, recombinant full-length USP7 (Homo sapiens, UniProt Q93009).
T1 construct: A 25 μl reaction volume containing recombinant full-length USP7 (62 pM)
T1 sequence (Q93009 whole entry): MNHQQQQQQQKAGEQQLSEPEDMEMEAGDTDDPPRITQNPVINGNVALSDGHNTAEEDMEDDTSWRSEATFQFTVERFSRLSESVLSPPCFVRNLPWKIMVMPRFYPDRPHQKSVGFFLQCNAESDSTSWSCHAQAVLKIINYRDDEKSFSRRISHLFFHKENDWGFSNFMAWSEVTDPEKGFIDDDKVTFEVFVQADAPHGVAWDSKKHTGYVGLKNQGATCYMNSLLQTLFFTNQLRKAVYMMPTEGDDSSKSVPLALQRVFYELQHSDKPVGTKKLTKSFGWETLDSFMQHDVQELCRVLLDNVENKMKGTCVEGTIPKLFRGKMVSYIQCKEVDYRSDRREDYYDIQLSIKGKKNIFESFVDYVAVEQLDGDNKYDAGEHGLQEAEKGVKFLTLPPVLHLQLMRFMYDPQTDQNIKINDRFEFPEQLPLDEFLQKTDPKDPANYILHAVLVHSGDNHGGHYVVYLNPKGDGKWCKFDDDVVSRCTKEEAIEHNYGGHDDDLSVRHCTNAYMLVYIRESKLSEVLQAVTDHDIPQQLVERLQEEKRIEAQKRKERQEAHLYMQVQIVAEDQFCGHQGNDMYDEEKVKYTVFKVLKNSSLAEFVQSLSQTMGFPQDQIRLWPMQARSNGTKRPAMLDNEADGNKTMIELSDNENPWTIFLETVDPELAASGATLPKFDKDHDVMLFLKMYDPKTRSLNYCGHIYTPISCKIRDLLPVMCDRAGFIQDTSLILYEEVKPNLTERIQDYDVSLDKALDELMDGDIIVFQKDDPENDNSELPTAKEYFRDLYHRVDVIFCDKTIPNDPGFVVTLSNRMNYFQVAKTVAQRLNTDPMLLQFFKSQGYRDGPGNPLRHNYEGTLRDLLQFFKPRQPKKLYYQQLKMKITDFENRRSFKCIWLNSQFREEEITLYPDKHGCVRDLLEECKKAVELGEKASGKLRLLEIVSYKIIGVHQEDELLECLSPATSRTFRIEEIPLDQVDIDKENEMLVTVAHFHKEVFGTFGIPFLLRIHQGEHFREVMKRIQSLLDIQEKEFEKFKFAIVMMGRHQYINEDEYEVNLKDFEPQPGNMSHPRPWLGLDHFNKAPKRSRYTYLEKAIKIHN
As to the kind of experiment: USP7-mediated ubiquitin-rhodamine cleavage assay. The class given is biochemical. To be noted: recombinant full-length USP7 62 pM; ubiquitin-rhodamine 100 nM; 30-minute incubation with compound, 1 hour reaction at room temperature; read-out: Potency: USP7 IC50. Summed up: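 Compounds are first incubated with 62 pM enzyme for 30 min at room temperature in pH 7.3 HEPES buffer containing TCEP and BSA. Cleavage of 100 nM ubiquitin-rhodamine proceeds for 1 h before an acid quench, and IC50 is derived from fluorescence.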
With `Cc1cc(Cl)cc(-c2ccnc3cc(CO)sc23)c1OCC1CCNC1` (stereo not drawn) [Example 70, (7-(5-Chloro-3-methyl-2-(pyrrolidin-3-ylmethoxy)phenyl)thieno[3,2-b]pyridin-2-yl)methanol], the IC50 is 10000 to 30000 nM.
`Cc1cc(Cl)cc(-c2ccnc3cc(CN4C(=O)CCC4=O)sc23)c1O[C@H]1C[C@@H]2CN[C@H]1C2` [Example 221, 1-((7-(2-(((1S,4R,6S)-2-azabicyclo[2.2.1]heptan-6-yl)oxy)-5-chloro-3-methylphenyl)thieno[3,2-b]pyridin-2-yl)methyl)pyrrolidine-2,5-dione]: the concentration for half-maximal inhibition (IC50) was less than 1000 nM.
The same measure, in the same setting: then `Cc1cc(Cl)cc(-c2ccnc3cc(CN4C(=O)CCC4=O)sc23)c1O[C@H]1CCCNC1` [Example 211, (S)-1-((7-(5-Chloro-3-methyl-2-(piperidin-3-yloxy)phenyl)thieno[3,2-b]pyridin-2-yl)methyl)pyrrolidine-2,5-dione], with less than 1000 nM; and `Cc1cc(Cl)cc(-c2ccnc3cc(CN4C(=O)CCC4C(F)(F)F)sc23)c1OC1CCNCC1` (stereo not drawn) [Example 201, 1-((7-(5-Chloro-3-methyl-2-(piperidin-4-yloxy)phenyl)thieno[3,2-b]pyridin-2-yl)methyl)-5-(trifluoromethyl)pyrrolidin-2-one], with 1000 to 10000 nM; and `CCC(O)c1cc2nccc(-c3cc(Cl)cc(C)c3OC3CCCNCC3)c2s1` (stereo not drawn) [Example 267, 1-(7-(2-(Azepan-4-yloxy)-5-chloro-3-methylphenyl)thieno[3,2-b]pyridin-2-yl)propan-1-ol], with 1000 to 10000 nM.
For the compound `Cc1cc(Cl)cc(-c2ccnc3cc(CN4C(=O)C5C(C4=O)C5(C)C)sc23)c1O[C@@H]1CNC[C@@H]1F` (stereo partly drawn) [Example 312, 3-[[7-[5-chloro-2-[(3R,4S)-4-fluoropyrrolidin-3-yl]oxy-3-methyl-phenyl]thieno[3,2-b]pyridin-2-yl]methyl]-6,6-dimethyl-3-azabicyclo[3.1.0]hexane-2,4-dione], the IC50 was less than 1000 nM.
The same measure, in the same setting: as for `Cc1cc(Cl)cc(-c2ccnc3cc(Cn4c(=O)cc[nH]c4=O)sc23)c1OC1CCNCC1` [Example 184, 3-((7-(5-Chloro-3-methyl-2-(piperidin-4-yloxy)phenyl)thieno[3,2-b]pyridin-2-yl)methyl)pyrimidine-2,4(1H,3H)-dione], the figure is less than 1000 nM; as for `Cc1cc(Cl)cc(-c2ccnc3cc(CO)sc23)c1O[C@@H]1CN[C@H](C)C1` [Example 62, (7-(5-Chloro-3-methyl-2-(((3S,5R)-5-methylpyrrolidin-3-yl)oxy)phenyl)thieno[3,2-b]pyridin-2-yl)methanol], 10000 to 30000 nM; as for `Cc1cc(Cl)cc(-c2ncnc3cc(CN4C(=O)COC4=O)sc23)c1O[C@@H]1CNC[C@@H]1F` [Example 128, 3-((4-(5-Chloro-2-(((3R,4S)-4-fluoropyrrolidin-3-yl)oxy)-3-methylphenyl)thieno[3,2-d]pyrimidin-6-yl)methyl)oxazolidine-2,4-dione], less than 1000 nM.
On the same count and under the same terms, as for `Cc1cc(Cl)cc(-c2ccnc3cc(Cn4c(=O)ccn(CC(F)(F)F)c4=O)sc23)c1OC1(C)CNC1` [Example 279, 3-((7-(5-Chloro-3-methyl-2-((3-methylazetidin-3-yl)oxy)phenyl)thieno[3,2-b]pyridin-2-yl)methyl)-1-(2,2,2-trifluoroethyl)pyrimidine-2,4(1H,3H)-dione], the figure is less than 1000 nM; as for `CCN1C[C@H]2C[C@@H]1[C@H](Oc1c(C)cc(Cl)cc1-c1ccnc3cc(CN4C(=O)CCC4=O)sc13)C2` [Example 321, 1-[[7-[5-chloro-2-[[(1S,4R,5R)-3-ethyl-3-azabicyclo[2.2.1]heptan-5-yl]oxy]-3-methyl-phenyl]thieno[3,2-b]pyridin-2-yl]methyl]pyrrolidine-2,5-dione], less than 1000 nM.
The same measure, in the same setting: then `Cc1cc(Cl)cc(-c2ccnc3cc(CN4C(=O)C5CC5C4=O)sc23)c1O[C@@H]1CNC[C@@H]1C` (stereo partly drawn) [Example 327, 3-[[7-[5-chloro-3-methyl-2-[(3S,4S)-4-methylpyrrolidin-3-yl]oxy-phenyl]thieno[3,2-b]pyridin-2-yl]methyl]-3-azabicyclo[3.1.0]hexane-2,4-dione], with less than 1000 nM; and `Cc1cc(Cl)cc(-c2ccnc3cc(CN4C(=O)CCC4=O)sc23)c1O[C@H]1CCNC[C@H]1C` [Example 229, 1-((7-(5-Chloro-3-methyl-2-(((3R,4S)-3-methylpiperidin-4-yl)oxy)phenyl)thieno[3,2-b]pyridin-2-yl)methyl)pyrrolidine-2,5-dione], with less than 1000 nM; and `Cc1cc(Cl)cc(-c2ccnc3cc(CN4C(=O)C5C(C4=O)C5(C)C)sc23)c1O[C@@H]1CNC[C@@H]1C(F)F` (stereo partly drawn) [Example 389, 3-[[7-[5-chloro-2-[(3S,4S)-4-(difluoromethyl)pyrrolidin-3-yl]oxy-3-methyl-phenyl]thieno[3,2-b]pyridin-2-yl]methyl]-6,6-dimethyl-3-azabicyclo[3.1.0]hexane-2,4-dione dihydrochloride], with less than 1000 nM.
Regarding `Cc1cc(Cl)cc(-c2ccnc3cc(Cn4c(=O)ccn(CC(F)(F)F)c4=O)sc23)c1OC1CNCC1(C)C` (stereo not drawn) [Example 346, 3-[[7-[5-chloro-2-(4,4-dimethylpyrrolidin-3-yl)oxy-3-methyl-phenyl]thieno[3,2-b]pyridin-2-yl]methyl]-1-(2,2,2-trifluoroethyl)pyrimidine-2,4-dione], the half-maximal inhibitory concentration (IC50) is less than 1000 nM.
The same measure, in the same setting: then `Cc1cc(Cl)cc(-c2ccnc3cc(CO)sc23)c1O[C@@H]1CCC[C@H]1N` [Example 75, (7-(2-(((1R,2R)-2-Aminocyclopentyl)oxy)-5-chloro-3-methylphenyl)thieno[3,2-b]pyridin-2-yl)methanol], with 10000 to 30000 nM.
Turning to `CC(Oc1ccc(Cl)cc1-c1ccnc2cc(CO)sc12)C1CNC1` (stereo not drawn) [Example 42, (7-(2-(1-(Azetidin-3-yl)ethoxy)-5-chlorophenyl)thieno[3,2-b]pyridin-2-yl)methanol], the half-maximal inhibitory concentration (IC50) was in the range of 10000 to 30000 nM.
Same read-out and setting: then `Cc1cc(Cl)cc(-c2ccnc3cc(CN4C(=O)CCC4=O)sc23)c1O[C@H]1C[C@H]2CC[C@@H](C1)N2` [Example 214, 1-((7-(2-(((1R,3r,5S)-8-Azabicyclo[3.2.1]octan-3-yl)oxy)-5-chloro-3-methylphenyl)thieno[3,2-b]pyridin-2-yl)methyl)pyrrolidine-2,5-dione], with less than 1000 nM.

The assay is the same for the next values; noted with them: recombinant full-length USP7 62 pM; ubiquitin-rhodamine 100 nM; 30-minute pre-incubation, 1 hour reaction at room temperature; read-out: Potency (USP7 IC50).
Turning to `CCN1C[C@H](F)[C@H](Oc2c(C)cc(Cl)cc2-c2ccnc3cc(Cn4c(=O)ccn(C)c4=O)sc23)C1` [Example 459, 3-[[7-[5-chloro-2-[(3R,4S)-1-ethyl-4-fluoro-pyrrolidin-3-yl]oxy-3-methyl-phenyl]thieno[3,2-b]pyridin-2-yl]methyl]-1-methyl-pyrimidine-2,4-dione; 2,2,2-trifluoroacetic acid], the IC50 is less than 1000 nM.
Still for that read-out and setting: as for `Cc1cc(Cl)cc(-c2ccnc3cc(Cn4c(=O)ccn(CC(F)(F)F)c4=O)sc23)c1OC1CC(C)(N2CCOCC2)C1` (stereo not drawn) [Example 613, 3-[[7-[5-chloro-3-methyl-2-(3-methyl-3-morpholino-cyclobutoxy)phenyl]thieno[3,2-b]pyridin-2-yl]methyl]-1-(2,2,2-trifluoroethyl)pyrimidine-2,4-dione; 2,2,2-trifluoroacetic acid], the figure is less than 1000 nM; as for `Cc1cc(Cl)cc(-c2ccnc3cc(Cn4c(=O)ccn(CC(F)(F)F)c4=O)sc23)c1O[C@@H]1CN[C@@H](C)C1` [Example 632, 3-[[7-[5-chloro-3-methyl-2-[(3S,5S)-5-methylpyrrolidin-3-yl]oxy-phenyl]thieno[3,2-b]pyridin-2-yl]methyl]-1-(2,2,2-trifluoroethyl)pyrimidine-2,4-dione], less than 1000 nM.
For `Cc1cc(Cl)cc(-c2ccnc3cc(Cn4c(=O)ccn(C(C)C)c4=O)sc23)c1OC1CN2CCC1C2` [Example 590, 3-[[7-[2-[[(1S,3S,4R)-1-azabicyclo[2.2.1]heptan-3-yl]oxy]-5-chloro-3-methyl-phenyl]thieno[3,2-b]pyridin-2-yl]methyl]-1-isopropyl-pyrimidine-2,4-dione], the IC50 was less than 1000 nM.
Still for that read-out and setting: as for `Cc1cc(Cl)cc(-c2ccnc3cc(CN4C(=O)CCC4=O)sc23)c1OC1CCCC(N)C1` (stereo not drawn) [Example 427, 1-[[7-[2-(3-aminocyclohexoxy)-5-chloro-3-methyl-phenyl]thieno[3,2-b]pyridin-2-yl]methyl]pyrrolidine-2,5-dione; 2,2,2-trifluoroacetic acid], the figure is less than 1000 nM; as for `Cc1cc(Cl)cc(-c2ccnc3cc(Cn4c(=O)ccn(CC(F)(F)F)c4=O)sc23)c1O[C@H]1CCCNCC1` [Example 656, 3-[[7-[2-[(4S)-azepan-4-yl]oxy-5-chloro-3-methyl-phenyl]thieno[3,2-b]pyridin-2-yl]methyl]-1-(2,2,2-trifluoroethyl)pyrimidine-2,4-dione; 2,2,2-trifluoroacetic acid], less than 1000 nM.
The same measure, in the same setting: as for `Cc1cc(Cl)cc(-c2ccnc3cc(Cn4c(=O)ccn(CC(F)(F)F)c4=O)sc23)c1O[C@@H]1CCN(CC(F)(F)F)C[C@@H]1C` [Example 638, 3-[[7-[5-chloro-3-methyl-2-[[(3S,4R)-3-methyl-1-(2,2,2-trifluoroethyl)-4-piperidyl]oxy]phenyl]thieno[3,2-b]pyridin-2-yl]methyl]-1-(2,2,2-trifluoroethyl)pyrimidine-2,4-dione], the figure is less than 1000 nM; as for `Cc1cc(Cl)cc(-c2ccnc3cc(Cn4c(=O)ccn(C)c4=O)sc23)c1OCCN` [Example 552, 3-[[7-[2-(2-aminoethoxy)-5-chloro-3-methyl-phenyl]thieno[3,2-b]pyridin-2-yl]methyl]-1-methyl-pyrimidine-2,4-dione; 2,2,2-trifluoroacetic acid], less than 1000 nM.
On the same count and under the same terms, as for `Cc1cc(Cl)cc(-c2ccnc3cc(Cn4c(=O)ccn(C)c4=O)sc23)c1O[C@H]1CC[C@H](N)C1` [Example 522, 3-[[7-[2-[(1S,3S)-3-aminocylcopentoxy]-5-chloro-3-methyl-phenyl]thieno[3,2-b]pyridin-2-yl]methyl]-1-methyl-pyrimidine-2,4-dione; 2,2,2-trifluoroacetic acid], the figure is less than 1000 nM.
